Biological target: albumin (Homo sapiens, UniProt P02768)
Assay: Percentage plasma protein binding towards human serum albumin
Format: cell-free
Settings: read-out: PB (converted)

Sequence of albumin (P02768 whole entry): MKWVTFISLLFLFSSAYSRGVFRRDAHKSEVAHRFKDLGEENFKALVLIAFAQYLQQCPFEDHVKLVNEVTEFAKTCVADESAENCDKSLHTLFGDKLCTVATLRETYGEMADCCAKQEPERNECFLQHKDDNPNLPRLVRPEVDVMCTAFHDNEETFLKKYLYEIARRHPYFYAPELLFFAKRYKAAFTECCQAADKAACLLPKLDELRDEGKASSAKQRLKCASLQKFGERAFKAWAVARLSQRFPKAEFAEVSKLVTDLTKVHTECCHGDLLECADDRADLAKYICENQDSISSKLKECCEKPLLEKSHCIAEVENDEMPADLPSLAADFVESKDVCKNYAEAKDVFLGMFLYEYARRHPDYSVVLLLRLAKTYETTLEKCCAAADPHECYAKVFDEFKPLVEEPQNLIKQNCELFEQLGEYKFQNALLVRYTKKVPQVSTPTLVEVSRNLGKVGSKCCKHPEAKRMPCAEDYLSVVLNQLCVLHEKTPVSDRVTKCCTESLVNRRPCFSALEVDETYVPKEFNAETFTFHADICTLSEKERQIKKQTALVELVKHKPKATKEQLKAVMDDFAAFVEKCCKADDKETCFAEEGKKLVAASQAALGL

| SMILES | fraction unbound |
| --- | --- |
| CC1=C(CC(=O)O)c2cc(F)ccc2/C1=C\c1ccc([S+](C)[O-])cc1 (stereo unspecified) | 0.06 |
| CC(C)Cc1ccc([C@@H](C)C(=O)NCCCN(C)C)cc1 | 0.249 |
| CC(Cc1ccc([C@@H](C)C(=O)NS(C)(=O)=O)cc1)C(=O)O (stereo partly specified) | 0.298 |
| C[C@@H](C(=O)NCCN1CCCC1)c1ccc(OS(=O)(=O)C(F)(F)F)cc1 | 0.3 |
| CC(C)Cc1ccc([C@@H](C)C(=O)NCCCN2CCCCC2)cc1 | 0.149 |
| CC(C)Cc1ccc([C@@H](C)C(=O)N[C@H](C)C(=O)O)cc1 | 0.04 |
| COc1ccc2c(c1)CN(c1ccc(C(C)C(=O)O)cc1)C2=O (stereo unspecified) | 0.02 |
| C[C@@H](C(=O)NCCCN1CCCC1)c1ccc(OS(=O)(=O)C(F)(F)F)cc1 | 0.38 |
| C[C@@H](C(N)=O)c1ccc(OS(=O)(=O)C(F)(F)F)cc1 | 0.08 |
| CC(C)Cc1ccc([C@@H](C)C(=O)NCCOCCO)cc1 | 0.169 |
| CCCNC(=O)NS(=O)(=O)c1ccc(Cl)cc1 [CHLORPROPAMIDE] | 0.04 |
| CC(C(=O)O)c1ccc(-c2ccccc2)c(F)c1 (stereo unspecified) [FLURBIPROFEN] | 0.005 |
| NS(=O)(=O)c1cc2c(cc1Cl)NCNS2(=O)=O [HYDROCHLOROTHIAZIDE] | 0.42 |
| O=C(c1ccccc1)c1ccc2n1CCC2C(=O)O (stereo unspecified) [KETOROLAC] | 0.008 |
| C[C@@H](C(=O)NS(C)(=O)=O)c1ccc(OS(=O)(=O)C(F)(F)F)cc1 [LADARIXIN] | 0.002 |
| CS(=O)(=O)Nc1ccc([N+](=O)[O-])cc1Oc1ccccc1 [NIMESULIDE] | 0.1 |
| CC(C)Cc1ccc([C@@H](C)C(=O)NS(C)(=O)=O)cc1 [REPARIXIN] | 0.001 |
| CC(C)NCC(O)c1ccc(NS(C)(=O)=O)cc1 (stereo unspecified) [SOTALOL] | 0.825 |
| Cc1ccc(S(=O)(=O)NC(=O)NN2CCCCCC2)cc1 [TOLAZAMIDE] | 0.03 |
| Cc1ccc(C(=O)c2ccc(CC(=O)O)n2C)cc1 [TOLMETIN] | 0.004 |
| Cc1cc(CC(=O)O)n(C)c1C(=O)c1ccc(Cl)cc1 [ZOMEPIRAC] | 0.015 |

From ChEMBL document CHEMBL1143569, “Predicting human serum albumin affinity of interleukin-8 (CXCL8) inhibitors by 3D-QSPR approach” (J Med Chem, 2005)
